Experimental data as given in article PMC5788402, “Impact of Target Warhead and Linkage Vector on Inducing Protein Degradation: Comparison of Bromodomain and Extra-Terminal (BET) Degraders Derived from Triazolodiazepine (JQ1) and Tetrahydroquinoline (I-BET726) BET Inhibitor Scaffolds” (Journal of Medicinal Chemistry, 2017).

Tests used:
[1] = molecular target: T1, Brd4 (Homo sapiens, UniProt O60885); assay: Brd4 depletion in HL60 (immunoblot); assay type: cell-based
T1 construct: endogenous in cells; host or cells: MV4;11; HL60

[2] = molecular target: VHL-EloC-EloB protein (VCB) (Homo sapiens, UniProt P40337); assay: ITC binary titration, VCB into PROTAC; assay type: binding; conditions: VCB in syringe, PROTAC in cell
[3] = molecular target: VCB / Brd4^BD2 ternary complex (Homo sapiens, UniProt O60885+P40337); assay: ITC ternary titration, VCB into Brd4^BD2–PROTAC complex; assay type: binding
[4] = molecular target: Brd4^BD2 (Homo sapiens, UniProt O60885); assay: ITC binary titration, Brd4^BD2 into PROTAC; assay type: binding; conditions: Brd4^BD2 in syringe, PROTAC in cell
[5] = ternary, VCB in syringe, Brd4^BD2–PROTAC in cell

## Cc1sc2c(c1C)C(c1ccc(Cl)cc1)=N[C@@H](CC(=O)OC(C)(C)C)c1nnc(C)n1-2 [compound 3]
[1]
  Brd4 depletion (%) HL60: –243/20%

## Cc1ncsc1-c1ccc(CNC(=O)[C@@H]2C[C@@H](O)CN2C(=O)[C@@H](NC(=O)COCCOCCNC(=O)C[C@@H]2N=C(c3ccc(Cl)cc3)c3c(sc(C)c3C)-n3c(C)nnc32)C(C)(C)C)cc1 [compound 5, (2S,4R)-1-((S)-2-(tert-Butyl)-14-((S)-4-(4-chlorophenyl)-2,3,9-trimethyl-6H-thieno[3,2-f][1,2,4]triazolo[4,3-a][1,4]diazepin-6-yl)-4,13-dioxo-6,9-dioxa-3,12-diazatetradecanoyl)-4-hydroxy-N-(4-(4-methylthiazol-5-yl)benzyl)pyrrolidine-2-carboxamide]
[2]
  stoichiometry N: 0.8 ± 0.05
  ΔG: –9.34 ± 0.10 kcal·mol^–1
  ΔH: –5.72 ± 0.47 kcal·mol^–1
  –TΔS: –3.61 ± 0.37 kcal·mol^–1
[3]; cooperativity, ratio between binary and ternary Kd, Brd4^BD2
  α: 5.7
[3]; ternary complex formation with VCB and Brd4^BD2, as tabulated in Table 2
  cooperativity (α) Brd4–BD2: 5.7
[3]; ternary vs binary, Brd4^BD2
  ΔpKd ± uncertainty: 0.78 ± 0.16
[3]; [5]
  stoichiometry N: 0.76 ± 0.06
  ΔG: –10.4 ± 0.2 kcal·mol^–1
  ΔH: –5.36 ± 0.77 kcal·mol^–1
  –TΔS: –5.05 ± 0.62 kcal·mol^–1
[4]
  stoichiometry N: 0.81 ± 0.04
  ΔG: –10.6 ± 0.06 kcal·mol^–1
  ΔH: –11.2 ± 0.04 kcal·mol^–1
